According to patent US12064455B2, “Free fatty acids and methods of manufacture and use for treating coronavirus and other viral respiratory infections” (priority 2020, dated 2024):
Like-named read-outs stand apart in the source and are kept apart here.

What was measured:
SARS-CoV-2 = assay type: cell-based; settings: Ethanol 35%
RSV = assay type: cell-based, respiratory syncytial virus
[1] = tested on: Influenza(H1N1)pdm09 virus; assay: Neutralization/virucidal assay, Example 8; assay type: cell-based, influenza A(H1N1)pdm09; settings: Ethanol 70%
PIV-3 = assay type: cell-based, parainfluenza virus type 3
HRV-14 = assay type: cell-based, human rhinovirus
Ad-5 = assay type: cell-based, Adenovirus Type 5
A549 = assay: Toxicity controls, Example 8; assay type: cell-based; settings: Ethanol 70%; Ad-5 test; highest dilution with full (80-100%) cytotoxicity
MA-104 = assay: Toxicity controls, Example 8; settings: Ethanol 70%, highest dilution with full (80-100%) cytotoxicity
HeLa = assay: Toxicity controls, Example 8; settings: Ethanol 70%; HRV-14 test; highest dilution with full (80-100%) cytotoxicity
hCoV-229E = assay: Neutralization/virucidal assay, Example 8

What does the source list for CCO [Ethanol]?
LRV (SARS-CoV-2; assay replicate 1): >3.6−; Virus Titer (SARS-CoV-2; assay replicate 1): <0.7 Log10CCID50 of virus per 0.1 ml; LRV (SARS-CoV-2; assay replicate 2): >3.3; Virus Titer (SARS-CoV-2; assay replicate 2): <0.7 Log10CCID50 of virus per 0.1 ml; LRV (RSV): 2.0; Virus Titer (RSV): 1.0 log10 CCID50 of virus per 0.1 mL; Virus Titer ([1]; contact time 10-min at 22 ± 2° C.): 3.0 log10 CCID50 of virus per 0.1 mL; LRV ([1]; contact time 10-min, vs virus control): 4.0; LRV (PIV-3): >2.3; Virus Titer (HRV-14): 4.5 log10 CCID50 of virus per 0.1 mL; LRV (Ad-5): 3.4; Virus Titer (Ad-5): 5.3 log10 CCID50 of virus per 0.1 mL; Toxicity (A549): None; Toxicity (MDCK): None; Toxicity (Huh7): None; Toxicity (MA-104; PIV-3 test): None; Toxicity (MA-104; RSV test): None; Toxicity (HeLa): None; Virus Titer (hCoV-229E): <0.7 log10 CCID50 of virus per 0.1 mL; LRV (hCoV-229E; Ethanol 70%, contact time 10-min, vs virus control): >2.0
